Reference: patent US20250116604A1, “FL[…] OF PERF[…] LIVING CULTURES OF A NEWLY ISOLATED P[…]. BACTERIUM” (The Government of the United States of America, as …, priority 2023, published 2025)

System: Pseudomonas sp. CBR-F
Assay: Fluorescent response of living Pseudomonas sp. CBR-F cultures to perfluoroalkyl substances
Format: cell-based
Conditions: excitation 425 nm; for fluorescent response of Pseudomonas sp. CBR-F: R2A medium, 96 well plate, 12-16 hours at 30° C.; for fluorescent response of Pseudomonas sp. CBR-F / form of the fluorescence response versus concentration: emission 475 nm; for form of the fluorescence response versus concentration: log of concentration plotted against the measured fluorescence; for limit of detection: ppb (micrograms/liter), fluorescence at 475 nm
Experimental: To perform an assay, CBR-F was inoculated into medium containing Reasoner's 2A medium (R2A) diluted from a 2× stock with the test sample in a 96 well plate. Internal standards using PFOA are run each time as a calibration curve. Following incubation for a number of hours (for example, 12-16 hours at 30° C.), fluorescence was measured at 475 nm with an excitation of 425 nm after the cultures have grown with shaking at 150 rpm for 15 hours using a 96 well plate reader with fluorescent capabilities. The log of PFOA concentration is plotted against the measured fluorescence, and a linear trend is calculated. The trendline formula is used to calculate PFOA/PFOS concentrations in the sample.

Row | SMILES | fluorescent response of Pseudomonas sp. CBR-F | form of the fluorescence response versus concentration | limit of detection [ppb]
1 | O=C(O)C(F)(F)C(F)(F)C(F)(F)C(F)(F)C(F)(F)C(F)(F)C(F)(F)F [PFOA, perfluorooctanoic acid] | produces fluorescence | linear relative to the log | 50
2 | O=S(=O)(O)C(F)(F)C(F)(F)C(F)(F)C(F)(F)C(F)(F)C(F)(F)C(F)(F)C(F)(F)F [PFOS, perfluorooctanesulfonic acid] | produces fluorescence | linear relative to the log | 50
